# Laboratory results: article PMC8523698, “Preclinical characterization of an intravenous coronavirus 3CL protease inhibitor for the potential treatment of COVID19” (Nature Communications, 2021)
# Where “and” joins values, the source holds several entries; their conditions need not be identical. Equal entries are not always repeated.
# Test system: MRC-5 cells
# Assay: Cytotoxicity in MRC-5 cells
# Settings: for % Effect: CC50 run 30-Apr-2020
smiles,measurement,setting,value
COc1cccc2[nH]c(C(=O)N[C@@H](CC(C)C)C(=O)N[C@@H](C[C@@H]3CCNC3=O)C(=O)CO)cc12 [PF-00835231-00],% Well Effect,"0.0316422 uM, minus efflux inhibitor, CC50 run 24-Apr-2020",5.91% and -1.40%
same,% Well Effect,"0.100053 uM, minus efflux inhibitor, CC50 run 24-Apr-2020",0.31% and -2.42%
same,% Well Effect,"0.316367 uM, minus efflux inhibitor, CC50 run 24-Apr-2020",0.82% and -3.88%
same,% Well Effect,"3.16311 uM, minus efflux inhibitor, CC50 run 24-Apr-2020",2.27% and -2.51%
same,% Well Effect,"3.16311 uM, plus 0.5 uM efflux inhibitor, CC50 run 22-may-2020",2.26%
same,% Well Effect,"3.16311 uM, plus 0.5 uM efflux inhibitor, CC50 run 24-Apr-2020",-4.43%
same,% Well Effect,"10.0018 uM, minus efflux inhibitor, CC50 run 24-Apr-2020",4.47% and -3.27%
same,% Well Effect,"10.0018 uM, plus 0.5 uM efflux inhibitor, CC50 run 22-may-2020",2.88%
same,% Well Effect,"10.0018 uM, plus 0.5 uM efflux inhibitor, CC50 run 24-Apr-2020",-5.99%
same,% Well Effect,"31.6256 uM, minus efflux inhibitor, CC50 run 24-Apr-2020",0.83% and -8.49%
same,% Well Effect,"31.6256 uM, plus 0.5 uM efflux inhibitor, CC50 run 22-may-2020",5.31%
same,% Well Effect,"31.6256 uM, plus 0.5 uM efflux inhibitor, CC50 run 24-Apr-2020",-3.70%
same,% Well Effect,"100 uM, minus efflux inhibitor, CC50 run 24-Apr-2020",-3.72% and -12.98%
same,% Well Effect,"100 uM, plus 0.5 uM efflux inhibitor, CC50 run 22-may-2020",-0.43%
same,% Well Effect,"100 uM, plus 0.5 uM efflux inhibitor, CC50 run 24-Apr-2020",-3.29%
same,% Well Effect,"CC50 data, MRC-5 cells, run 22-may-2020, plate GCNS00043792A, [Assay] 0.031642 uM",-3.27% and -2.12%
same,% Well Effect,"CC50 data, MRC-5 cells, run 22-may-2020, plate GCNS00043792A, [Assay] 0.100053 uM",-1.81% and 2.13%
same,% Well Effect,"CC50 data, MRC-5 cells, run 22-may-2020, plate GCNS00043792A, [Assay] 0.316367 uM",-2.43% and 2.23%
same,% Well Effect,"CC50 data, MRC-5 cells, run 22-may-2020, plate GCNS00043792A, [Assay] 1.00035 uM",1.33% and 1.48%
same,% Well Effect,"CC50 data, MRC-5 cells, run 22-may-2020, plate GCNS00043792A, [Assay] 3.16311 uM",-3.27%
same,% Well Effect,"CC50 data, MRC-5 cells, run 22-may-2020, plate GCNS00043792A, [Assay] 10.0018 uM",-1.55%
same,% Well Effect,"CC50 data, MRC-5 cells, run 22-may-2020, plate GCNS00043792A, [Assay] 31.6256 uM",0.64%
same,% Well Effect,"CC50 data, MRC-5 cells, run 22-may-2020, plate GCNS00043792A, [Assay] 100 uM",-1.12%
same,% Well Effect,"CC50 data, MRC-5 cells, run 24-Apr-2020, plate GCNS00043676A, [Assay] 0.0316422 uM",-8.00% and -3.89%
same,% Well Effect,"CC50 data, MRC-5 cells, run 24-Apr-2020, plate GCNS00043676A, [Assay] 0.100053 uM",-11.58% and -9.10%
same,% Well Effect,"CC50 data, MRC-5 cells, run 24-Apr-2020, plate GCNS00043676A, [Assay] 0.316367 uM",-6.82% and -8.60%
same,% Well Effect,"CC50 data, MRC-5 cells, run 24-Apr-2020, plate GCNS00043676A, [Assay] 1.00035 uM",-10.61% and -9.50%
same,% Well Effect,"CC50 data, MRC-5 cells, run 24-Apr-2020, plate GCNS00043676A, [Assay] 3.16311 uM",-5.78%
same,% Well Effect,"CC50 data, MRC-5 cells, run 24-Apr-2020, plate GCNS00043676A, [Assay] 10.0018 uM",-3.01%
same,% Well Effect,"CC50 data, MRC-5 cells, run 24-Apr-2020, plate GCNS00043676A, [Assay] 31.6256 uM",-3.17%
same,% Well Effect,"CC50 data, MRC-5 cells, run 24-Apr-2020, plate GCNS00043676A, [Assay] 100 uM",0.84%
same,% Effect,"Concentration 0.78125, minus efflux inhibitor",-1.26% and -6.59%
same,% Effect,"Concentration 1.5625, minus efflux inhibitor",-9.86% and -8.48%
same,% Effect,"Concentration 3.125, minus efflux inhibitor",-3.51% and -6.64%
same,% Effect,"Concentration 6.25, minus efflux inhibitor",-4.42% and -7.91%
same,% Effect,"Concentration 12.5, minus efflux inhibitor",-6.72% and -7.11%
same,% Effect,"Concentration 25, minus efflux inhibitor",-6.44% and -6.96%
same,% Effect,"Concentration 50, minus efflux inhibitor",-10.88% and -4.85%
same,% Effect,"Concentration 100, minus efflux inhibitor",-4.27% and -7.38%
